Reference: patent publication EP0761667A1, “Heterocyclic substituted pseudopeptides” (BAYER AG, priority 1995, dated 1997)
Where two headings read alike, the source gives them in different places.

Experiments:
[1] = molecular target: T1, HIV-1-Protease (Human immunodeficiency virus type 1 group M subtype B, UniProt P04585); test: HIV-specific protease enzyme test (purified HIV protease, synthetic peptide substrate, RP-HPLC analysis of cleavage products); type: biochemical
T1 construct: Gereinigte HIV-Protease wurde mit synthetischem Peptid
Excerpt: Es wurde überraschend gefunden, daß die Verbindungen der allgemeinen Formel (I) eine außerordentlich starke Wirkung gegen Retroviren besitzen. Dies wird mit einem HIV-spezifischen Protease-Enzymtest belegt.
Die Ergebnisse der unten aufgeführten Beispiele wurden nach dem in der folgenden Literaturangabe [vgl. Hansen, J., Billich, S., Schulze, T., Sukrow, S. and Mölling, K. (1988), EMBO Journal, Vol, 7, No. 6, pp. 1785 - 1791] beschriebenen HIV-Testsystem ermittelt: Gereinigte HIV-Protease wurde mit synthetischem Peptid, das eine Schnittstelle im Gag-Precursor-Protein imitiert und eine in vivo-Spaltstelle der HIV-Protease darstellt, inkubiert. Die entstandenen Spaltprodukte des synthetischen Peptids wurden über Reverse Phase High Performance Liquid Chromatography (RP-HPLC) analysiert. […]

[2] = test system: HIV; test: HIV infection in cell culture (PBL), microscopic evaluation of syncytia formation; type: cell-based; conditions: HIV-infected normal human blood lymphocytes (PBL's), day 3 to 6 after infection; for PBL IC95: suppression of virus-induced syncytia; for IC50: Human immunodeficiency virus 1, Lymphocyte, 72 h, 50% suppression of virus-induced syncytia
Protocol: HIV-Infektion in Zellkultur
Der HIV-Test wurde mit geringen Modifikationen nach der Methode von Pauwels et al. [vgl. Journal of Virological Methods 20, (1988), 309-321] durchgeführt.
Normale menschliche Blutlymphozyten (PBL's) wurden über Ficoll-Hypaque angereichert und im RPMI 1640, 20% fötales Kälberserum mit Phytohaemagglutinin (90 µg/ml) und Interleukin-2 (40 U/ml) stimuliert. Zur Infektion mit dem infektiösen HIV wurden PBL's pelletiert und das Zellpellet wurde anschließend in 1 ml HIV-Virusadsorptionslösung suspendiert und 1 Stunde bei 37°C inkubiert.
Die Virusadsorptionslösung wurde zentrifugiert und das infizierte Zellpellet in Wachstumsmedium aufgenommen, so daß 1 x 10^5 Zellen pro ml eingestellt waren. Die derart infizierten Zellen wurden zu 1 x 10^4 Zellen/Napf in die Näpfe von 96er Mikrotiterplatten pipettiert.
Die erste vertikale Reihe der Mikrotiterplatte enthielt nur Wachstumsmedium und Zellen, die nicht infiziert, aber ansonsten genauso wie oben beschrieben, behandelt worden waren (Zellkontrolle). Die zweite vertikale Reihe der Mikrotiterplatte erhielt nur HIV-infizierte Zellen (Viruskontrolle) in Wachstumsmedium. Die übrigen Näpfe enthielten die erfindungsgemäßen Verbindungen in unterschiedlichen Konzentrationen, ausgehend von den Näpfen der 3. vertikalen Reihe der Mikrotiterplatte, von der die Prüfsubstanzen in 2er Schritten 2^10fach verdünnt wurden.
Die Testansätze wurden so lange bei 37°C inkubiert, bis in der unbehandelten Viruskontrolle die für das HIV typische Syncytienbildung auftrat (zwischen Tag 3 und 6 nach Infektion), die dann mikroskopisch ausgewertet wurde. In der unbehandelten Viruskontrolle resultierten unter diesen Testbedingungen etwa 20 Syncytien, während die unbehandelte Zellkontrolle keine Syncytien aufwies.
Die IC50-Werte wurden als die Konzentration der behandelten und infizierten Zellen ermittelt, bei der 50% (ca. 10 Syncytien) der virusinduzierten Syncytien durch die Behandlung mit der erfindungsgemäßen Verbindung unterdrückt waren. […]

[3] = purified HIV protease, synthetic peptide imitating a Gag precursor cleavage site
[4] = purified HIV protease, synthetic peptide imitating a Gag precursor cleavage site, concentration giving 50% inhibition of protease activity, read-out: HIV-1-Protease-Inhibition IC50

Row | Structure (SMILES) | IC50 [1] | HIV-1-Protease-Inhibition IC95 [1, 3] | PBL IC95 [2] | IC50 [2] | IC50 [1, 4]
1 | NC(=O)C[C@H](NC(=O)OC1CCOC1)C(=O)N[C@@H](Cc1ccccc1)[C@H](O)CN1[C@H](C(F)(F)F)C[C@@H]2CCC[C@@H]21 (stereo partly drawn) [Beispiel 1, (2S,3S)-3-(Tetrahydrofuran-3-yl-oxycarbonyl-L-asparaginyl)amino-1-[(S,S,S)-3-trifluormethyl-2-azabicyclo[3.3.0]octan-2-yl}-2-hydroxy-4-phenylbutan] | 30 nM | 3,8 x 10^-7 Mol/l | 3,5 x 10^-6 Mol/l | 2200 nM | 
2 | NC(=O)C[C@H](NC(=O)O[C@H]1CCOC1)C(=O)N[C@@H](Cc1ccccc1)[C@H](O)CN1[C@H](C(F)(F)F)C[C@@H]2CCC[C@@H]21 [Beispiel 2] |  | 3,6 x 10^-9 Mol/l | 3,5 x 10^-6 Mol/l | 2000 nM | 0.27 nM
3 | NC(=O)C[C@H](NC(=O)OC1CCS(=O)(=O)C1)C(=O)N[C@@H](Cc1ccccc1)[C@H](O)CN1[C@H](C(F)(F)F)C[C@@H]2CCC[C@@H]21 (stereo partly shown) [Beispiel 3] |  |  | 1,9 x 10^-6 Mol/l | 1200 nM | 9.5 nM
4 | NC(=O)C[C@H](NC(=O)OC1C=CS(=O)(=O)C1)C(=O)N[C@@H](Cc1ccccc1)[C@H](O)CN1[C@H](C(F)(F)F)C[C@@H]2CCC[C@@H]21 (stereo partly shown) [Beispiel 4] |  | 3,9 x 10^-9 Mol/l |  | > 16000 nM | 2.1 nM
5 | O=C(N[C@@H](Cc1ccccc1)[C@H](O)CN1[C@H](C(F)(F)F)C[C@@H]2CCC[C@@H]21)OC1CCOC1 (stereo partly drawn) [Beispiel 5, (2R,3S)-3-(Tetrahydrofuran-3-yl-oxycarbonyl)-amino-1-{(S,S,S)-3-trifluormethyl-2-azabicyclo[3.3.0]octan-2-yl}-2-hydroxy-4-phenylbutan] | 4.1 nM | 4,7 x 10^-8 Mol/l | 2,2 x 10^-5 Mol/l | 14000 nM | 
6 | O=C(N[C@@H](Cc1ccccc1)[C@H](O)CN1[C@H](C(F)(F)F)C[C@@H]2CCC[C@@H]21)O[C@H]1CCOC1 [Beispiel 6] |  | 5,0 x 10^-8 Mol/l | 1,3 x 10^-5 Mol/l | 2800 nM | 25 nM
7 | O=C(N[C@@H](Cc1ccccc1)[C@H](O)CN1[C@H](C(F)(F)F)C[C@@H]2CCC[C@@H]21)OC1CCS(=O)(=O)C1 (stereo partly shown) [Beispiel 7] |  |  |  | 6200 nM | 25 nM
8 | O=C(N[C@@H](Cc1ccccc1)[C@H](O)CN1[C@H](C(F)(F)F)C[C@@H]2CCC[C@@H]21)OC1C=CS(=O)(=O)C1 (stereo partly shown) [Beispiel 8] |  | 4,1 x 10^-8 Mol/l | >2e-05 mol/L | 17000 nM | 3.2 nM
